From patent US11780845B2 (Relay Therapeutics, Inc., priority 2019, dated 2023)

Key:
FGFR2 = FGFR2 (Homo sapiens (Human), UniProt P21802); test: FGFR2 Biochemical Caliper Assay
Protocol: Compounds of the present invention were also tested in a FGFR2 Biochemical Caliper Assay. Compounds were prepared in 10 mM DMSO solution and serially diluted into 11 concentrations by 3-fold dilution. […] 5 uL of ATP solution (100 uM) was added to start the reaction and the plate was incubated for 90 minutes, then 70 uL of stopping buffer (0.5M EDTA) was added to terminate the reaction. Each well was analyzed using EZ reader.

SNU16 cells = test: SNU16 Cancer Cell Line Proliferation Assay; format: cell-based; conditions: Homo sapiens; SNU-16 cells
In short: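 SNU16 cells were seeded, held 24 h at 37 degrees, then dosed with an 11-point 3-fold dilution series prepared from a 10 mM DMSO stock. After 96 h incubation, viability was read by CellTiter Glo luminescence.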

Chain of FGFR2 (P21802 22-821): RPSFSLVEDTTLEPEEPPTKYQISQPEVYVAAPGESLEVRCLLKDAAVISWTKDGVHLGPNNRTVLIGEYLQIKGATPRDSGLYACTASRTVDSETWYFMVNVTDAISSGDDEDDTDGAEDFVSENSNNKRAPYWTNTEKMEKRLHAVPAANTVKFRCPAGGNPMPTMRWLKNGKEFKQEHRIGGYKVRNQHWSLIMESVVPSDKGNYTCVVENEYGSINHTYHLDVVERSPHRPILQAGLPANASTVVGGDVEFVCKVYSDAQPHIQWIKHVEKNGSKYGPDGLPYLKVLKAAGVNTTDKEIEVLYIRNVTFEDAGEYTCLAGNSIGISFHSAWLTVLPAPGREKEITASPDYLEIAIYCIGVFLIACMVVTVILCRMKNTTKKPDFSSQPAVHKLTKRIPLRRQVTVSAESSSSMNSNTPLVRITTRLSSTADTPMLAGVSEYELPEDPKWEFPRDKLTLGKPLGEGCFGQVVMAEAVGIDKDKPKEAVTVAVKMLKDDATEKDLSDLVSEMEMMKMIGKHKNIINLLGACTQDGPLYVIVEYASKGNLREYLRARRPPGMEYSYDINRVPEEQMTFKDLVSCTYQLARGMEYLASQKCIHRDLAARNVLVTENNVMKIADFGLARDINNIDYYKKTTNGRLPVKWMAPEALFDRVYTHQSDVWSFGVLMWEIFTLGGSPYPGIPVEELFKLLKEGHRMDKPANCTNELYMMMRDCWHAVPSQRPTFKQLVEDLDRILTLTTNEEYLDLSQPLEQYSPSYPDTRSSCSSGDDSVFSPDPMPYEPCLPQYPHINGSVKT

SMILES	IC50 (FGFR2)	IC50 (SNU16 cells)
C=CC(=O)N1CC=C(c2c(-c3ccc(Oc4ncccn4)c(OC)c3)c3c(N)ncnc3n2C)CC1 [Example 674]	< 0.1 µM	≤ 0.1 µM
C=CC(=O)N1CCC(c2c(-c3ccc(Oc4ccccn4)c(OC)c3)c3c(N)ncnc3n2C)C1 (centres unmarked) [Example 675]	0.25 to 1 µM	1 to 100 µM
C=CC(=O)N1CC=C(c2c(-c3ccc(Oc4ccccn4)c(OC)c3)c3c(N)ncnc3n2C)CC1 [Example 676]	< 0.1 µM	≤ 0.1 µM
C=CC(=O)N1CC=C(c2c(-c3ccc(Oc4cc(C)ccn4)c(OC)c3)c3c(N)ncnc3n2C)CC1 [Example 677]	< 0.1 µM	≤ 0.1 µM
C=CC(=O)N1CC=C(c2c(-c3ccc(Oc4cncc(C)c4)c(OC)c3)c3c(N)ncnc3n2C)CC1 [Example 678]	< 0.1 µM	0.1 to 0.25 µM
C=CC(=O)N1CC=C(c2c(-c3ccc(Oc4ncccn4)cc3)c3c(N)ncnc3n2C)CC1 [Example 680]	< 0.1 µM	≤ 0.1 µM
C=CC(=O)N1CC=C(c2c(-c3ccc(Oc4ccccn4)cc3)c3c(N)ncnc3n2C)CC1 [Example 681]	< 0.1 µM	≤ 0.1 µM
C=CC(=O)N1CCC(c2c(-c3ccc(Oc4ncccn4)cc3)c3c(N)ncnc3n2C)C1 (centres unmarked) [Example 682]	0.1 to 0.25 µM	≤ 0.1 µM
C=CC(=O)N1CC=C(c2c(-c3ccc(Oc4ccc(C)cn4)c(OC)c3)c3c(N)ncnc3n2C)CC1 [Example 683]	< 0.1 µM	≤ 0.1 µM
C=CC(=O)N1CCC(n2nc(-c3c(-c4ccc(Oc5cccc(C)n5)c(OC)c4)c4c(N)ncnc4n3C)cc2C)CC1 [Example 684]	1 to 100 µM	1 to 100 µM
C=CC(=O)N1CCC(c2c(-c3ccc(Oc4ccc(C)nc4)c(OC)c3)c3c(N)ncnc3n2C)C1 (centres unmarked) [Example 685]	1 to 100 µM	1 to 100 µM
C=CC(=O)N1CC=C(c2c(-c3ccc(Oc4ncccn4)cc3)c3c(N)ncnc3n2C)C1 [Example 686]	< 0.1 µM	≤ 0.1 µM
C=CC(=O)N1CCC(c2c(-c3ccc(Oc4ncccn4)c(OC)c3)c3c(N)ncnc3n2C)C1 (centres unmarked) [Example 687]	1 to 100 µM	1 to 100 µM
C=C(C)C(=O)N1CC=C(c2c(-c3ccc(Oc4ncccn4)cc3)c3c(N)ncnc3n2C)C1 [Example 688]	1 to 100 µM	1 to 100 µM
C=CC(=O)N1CCC(c2c(-c3ccc(Oc4ccccn4)cc3)c3c(N)ncnc3n2C)C1 (centres unmarked) [Example 689]	< 0.1 µM	≤ 0.1 µM
C=CC(=O)N1CC=C(c2c(-c3ccc(Oc4cccc(CC)n4)c(OC)c3)c3c(N)ncnc3n2C)CC1 [Example 690]	< 0.1 µM	≤ 0.1 µM
C=C(C)C(=O)N1CCC(c2c(-c3ccc(Oc4cccc(C)n4)cc3)c3c(N)ncnc3n2C)C1 (centres unmarked) [Example 691]	0.25 to 1 µM	1 to 100 µM
C/C=C/C(=O)N1CCC(c2c(-c3ccc(Oc4cccc(C)n4)cc3)c3c(N)ncnc3n2C)C1 (centres unmarked) [Example 692]	1 to 100 µM	1 to 100 µM
C=C(C)C(=O)N1CCC(c2c(-c3ccc(Oc4cccc(C)n4)cc3)c3c(N)ncnc3n2C)CC1 [Example 693]	0.25 to 1 µM	1 to 100 µM
C/C=C/C(=O)N1CCC(c2c(-c3ccc(Oc4cccc(C)n4)cc3)c3c(N)ncnc3n2C)CC1 [Example 694]	0.25 to 1 µM	0.25 to 1 µM
CC#CC(=O)N1CCC(c2c(-c3ccc(Oc4cccc(C)n4)cc3)c3c(N)ncnc3n2C)CC1 [Example 695]	0.1 to 0.25 µM	≤ 0.1 µM

SMILES	IC50 (FGFR2)	IC50 (SNU16 cells)
C=CC(=O)N1CCC(c2c(-c3ccc(Oc4ncccn4)cc3)c3c(N)ncnc3n2C)CC1 [Example 696]	0.25 to 1 µM	0.1 to 0.25 µM
CC#CC(=O)N1CCC(c2c(-c3ccc(Oc4cccc(C)n4)cc3)c3c(N)ncnc3n2C)C1 (centres unmarked) [Example 699]	0.1 to 0.25 µM	≤ 0.1 µM
C=CC(=O)N1CCC(c2c(-c3ccccc3)c3c(N)ncnc3n2C)C1 (centres unmarked) [Example 700]	1 to 100 µM	0.25 to 1 µM
C=CC(=O)N1CCC(c2c(-c3ccc(Oc4ccccn4)cc3)c3c(N)ncnc3n2C)CC1 [Example 701]	< 0.1 µM	≤ 0.1 µM
C=CC(=O)N1CCC(c2c(-c3ccc(OC)cc3)c3c(N)ncnc3n2C)C1 (centres unmarked) [Example 702]	0.25 to 1 µM	0.1 to 0.25 µM
C=C(C)C(=O)Nc1ccc(-c2[nH]c3ncnc(N)c3c2-c2ccc(Oc3cccc(C)n3)cc2)cc1 [Example 703]	< 0.1 µM	≤ 0.1 µM
C=CC(=O)N1CCC(c2c(-c3ccc(Oc4ncccn4)cc3)c3c(N)ncnc3n2C2CCOCC2)C1 (centres unmarked) [Example 704]	0.25 to 1 µM	0.1 to 0.25 µM
C=CC(=O)N1CCC(c2c(-c3ccc(Oc4ncccn4)cc3)c3c(N)ncnc3n2CC)C1 (centres unmarked) [Example 705]	0.1 to 0.25 µM	≤ 0.1 µM
C=CC(=O)N1CCC(c2c(-c3ccc(Oc4ccc(Cl)cn4)cc3)c3c(N)ncnc3n2C)C1 (centres unmarked) [Example 706]	< 0.1 µM	≤ 0.1 µM
C=CC(=O)N1CCC(c2c(-c3ccc(Oc4ncccn4)cc3)c3c(N)ncnc3n2CCN(C)C)C1 (centres unmarked) [Example 707]	1 to 100 µM	1 to 100 µM
C=CC(=O)N1CCC(c2[nH]c3ncnc(N)c3c2-c2ccc(Oc3ncccn3)cc2)C1 (centres unmarked) [Example 709]	< 0.1 µM	≤ 0.1 µM
C=CC(=O)N1CC[C@@H](c2[nH]c3ncnc(N)c3c2-c2ccc(Oc3ncccn3)cc2)C1 [Example 713]	< 0.1 µM	≤ 0.1 µM
C=CC(=O)N1CCC(c2c(-c3ccc(Oc4ncccn4)cc3)c3c(N)ncnc3n2C2CC(O)C2)C1 (centres unmarked) [Example 714]	< 0.1 µM	≤ 0.1 µM
C=CC(=O)N1CCC(c2c(-c3cnn(CCN(C)C)c3)c3c(N)ncnc3n2C)C1 (centres unmarked) [Example 715]	1 to 100 µM	1 to 100 µM
C=CC(=O)N1CCC(c2c(-c3ccc(OC4CCCC4)cc3)c3c(N)ncnc3n2C)C1 (centres unmarked) [Example 716]	< 0.1 µM	≤ 0.1 µM
C=CC(=O)N1CCC(c2c(-c3ccc(OCCOC)cc3)c3c(N)ncnc3n2C)C1 (centres unmarked) [Example 717]	1 to 100 µM	0.25 to 1 µM
C=CC(=O)N1CCC(c2c(-c3ccc(C(=O)N4CCC(F)(F)C4)cc3)c3c(N)ncnc3n2C)C1 (centres unmarked) [Example 718]	0.25 to 1 µM	0.25 to 1 µM
C=CC(=O)N1CCC(c2c(-c3ccc(N4CCCC4)cc3)c3c(N)ncnc3n2C)C1 (centres unmarked) [Example 719]	< 0.1 µM	≤ 0.1 µM
C=CC(=O)N1CCC(c2c(-c3ccc(N(C)C(C)=O)cc3)c3c(N)ncnc3n2C)C1 (centres unmarked) [Example 720]	1 to 100 µM	1 to 100 µM
C=CC(=O)N1CCC(c2c(-c3ccc(COC)cc3)c3c(N)ncnc3n2C)C1 (centres unmarked) [Example 721]	0.25 to 1 µM	0.25 to 1 µM
C=CC(=O)N1CCC(c2c(-c3ccc(C(=O)N4CCOCC4)cc3)c3c(N)ncnc3n2C)C1 (centres unmarked) [Example 722]	1 to 100 µM	1 to 100 µM

SMILES	IC50 (FGFR2)	IC50 (SNU16 cells)
C=CC(=O)N1CCC(c2c(-c3cnn(CC(F)(F)F)c3)c3c(N)ncnc3n2C)C1 (centres unmarked) [Example 723]	1 to 100 µM	1 to 100 µM
C=CC(=O)N1CCC(c2c(-c3ccc(CN4CC[C@@H](O)C4)cc3)c3c(N)ncnc3n2C)C1 (some centres unmarked) [Example 724]	1 to 100 µM	1 to 100 µM
C=CC(=O)N1CCC(c2c(-c3ccc(C(=O)Nc4ccccn4)cc3)c3c(N)ncnc3n2C)C1 (centres unmarked) [Example 725]	< 0.1 µM	0.1 to 0.25 µM
C=CC(=O)N1CCC(c2c(-c3cnn(C4CCCC4)c3)c3c(N)ncnc3n2C)C1 (centres unmarked) [Example 726]	1 to 100 µM	1 to 100 µM
C=CC(=O)N1CCC(c2c(-c3ccc(C(=O)N4CCC4)c(F)c3)c3c(N)ncnc3n2C)C1 (centres unmarked) [Example 727]	1 to 100 µM	1 to 100 µM
C=CC(=O)N1CCC(c2c(-c3ccc(Oc4ncccn4)cc3)c3c(N)ncnc3n2CCN2CCOCC2)C1 (centres unmarked) [Example 728]	1 to 100 µM	1 to 100 µM
C=CC(=O)N1CCC(c2c(-c3ccc(COc4ccccc4)cc3)c3c(N)ncnc3n2C)C1 (centres unmarked) [Example 729]	0.1 to 0.25 µM	0.1 to 0.25 µM
C=CC(=O)N1CC[C@H](c2[nH]c3ncnc(N)c3c2-c2ccc(Oc3ncccn3)cc2)C1 [Example 730]	0.25 to 1 µM	1 to 100 µM
C=CC(=O)N1CCC(c2c(-c3ccc(C(=O)N4CCSC4)cc3)c3c(N)ncnc3n2C)C1 (centres unmarked) [Example 731]	0.25 to 1 µM	0.25 to 1 µM
C=CC(=O)N1CCC(c2c(-c3cnn(CC4CCNCC4)c3)c3c(N)ncnc3n2C)C1 (centres unmarked) [Example 732]	0.1 to 0.25 µM	1 to 100 µM
C=CC(=O)N1CCC(c2c(-c3ccc(OCC(F)(F)F)nc3)c3c(N)ncnc3n2C)C1 (centres unmarked) [Example 733]	0.25 to 1 µM	0.25 to 1 µM
C=CC(=O)N1CCC(c2c(-c3ccc(OCC4CC4)cc3)c3c(N)ncnc3n2C)C1 (centres unmarked) [Example 734]	0.1 to 0.25 µM	≤ 0.1 µM
C=CC(=O)N1CCC(c2c(-c3ccc(C(=O)N4CCCC4)cc3)c3c(N)ncnc3n2C)C1 (centres unmarked) [Example 735]	0.25 to 1 µM	0.25 to 1 µM
C=CC(=O)N1CCC(c2c(-c3cnn(C4CCOC4)c3)c3c(N)ncnc3n2C)C1 (centres unmarked) [Example 736]	1 to 100 µM	1 to 100 µM
C=CC(=O)N1CCC(c2c(-c3cnn(C(C)C)c3)c3c(N)ncnc3n2C)C1 (centres unmarked) [Example 737]	1 to 100 µM	1 to 100 µM
C=CC(=O)N1CCC(c2c(-c3ccc(Oc4ncccn4)cc3)c3c(N)ncnc3n2CCN2CCN(C)CC2)C1 (centres unmarked) [Example 738]	1 to 100 µM	1 to 100 µM
C=CC(=O)N1CCC(c2c(-c3ccc(Oc4ncc(Cl)cn4)cc3)c3c(N)ncnc3n2C)C1 (centres unmarked) [Example 739]	0.1 to 0.25 µM	≤ 0.1 µM
C=CC(=O)N1CC[C@@H](c2c(-c3ccc(Oc4ncccn4)cc3)c3c(N)ncnc3n2CCN2CCOCC2)C1 [Example 740]	1 to 100 µM	1 to 100 µM
C=CC(=O)N1CC[C@H](c2c(-c3ccc(Oc4ncccn4)cc3)c3c(N)ncnc3n2CCN2CCOCC2)C1 [Example 741]	1 to 100 µM	1 to 100 µM
